# From patent US10004701B2, “Methods and compositions for treating infection” (UNIVERSITY OF ROCHESTER, priority 2012, dated 2018)
# Counter-ions that a name gives are not always drawn. Like-named read-outs stand apart in the source and are kept apart here.
# What was measured:
# Assay in all cases: AK assay 384-well format, Prestwick library screening
# [1] = system: E. faecium; assay type: cell-based, Enterococcus faecium; conditions: 50 μM final drug concentration; for fold induction at 50 µM: Enterococcus faecium, 3 h
# [2] = system: S. aureus strain USA300-0114; assay type: cell-based, Staphylococcus aureus; conditions: 50 μM final drug concentration; for fold induction at 50 µM: Staphylococcus aureus, USA300, 3 h
# [3] = system: K. pneumoniae; assay type: cell-based, Klebsiella pneumoniae; conditions: 50 μM final drug concentration; for fold induction at 50 µM: Klebsiella pneumoniae, 3 h
# [4] = system: A. baumannii strain 98-37-09; assay type: cell-based, Acinetobacter baumannii; conditions: 50 μM final drug concentration; for fold induction at 50 µM: Acinetobacter baumannii, 983709, 3 h
# [5] = system: P. aeruginosa; assay type: cell-based, Pseudomonas aeruginosa; conditions: 50 μM final drug concentration; for fold induction at 50 µM: Pseudomonas aeruginosa, 3 h
# [6] = system: E. cloacae; assay type: cell-based, Enterobacter cloacae; conditions: 50 μM final drug concentration; for fold induction at 50 µM: Enterobacter cloacae, 3 h
# [7] = system: E. coli; assay type: cell-based, Escherichia coli; conditions: 50 μM final drug concentration; for fold induction at 50 µM: Escherichia coli, 3 h
# [8] = planktonic E. faecium, 384-well, cutoff for positive-scoring molecules 3-fold increase, read-out: AK-based Prestwick Library Screening Results: E. faecium (increase in extracellular AK activity)
# [9] = planktonic S. aureus, 384-well, cutoff for positive-scoring molecules 3-fold increase, read-out: AK-based Prestwick Library Screening Results: S. aureus (increase in extracellular AK activity)
# [10] = planktonic K. pneumoniae, 384-well, cutoff for positive-scoring molecules 3-fold increase, read-out: AK-based Prestwick Library Screening Results: K. pneumoniae (increase in extracellular AK activity)
# [11] = planktonic A. baumannii, 384-well, cutoff for positive-scoring molecules 3-fold increase, read-out: AK-based Prestwick Library Screening Results: A. baumannii (increase in extracellular AK activity)
# [12] = planktonic P. aeruginosa, 384-well, cutoff for positive-scoring molecules 3-fold increase, read-out: AK-based Prestwick Library Screening Results: P. aeruginosa (increase in extracellular AK activity)
# [13] = planktonic E. cloacae, 384-well, cutoff for positive-scoring molecules 3-fold increase, read-out: AK-based Prestwick Library Screening Results: E. cloacae (increase in extracellular AK activity)
# [14] = planktonic E. coli, 384-well, cutoff for positive-scoring molecules 3-fold increase, read-out: AK-based Prestwick Library Screening Results: E. coli (increase in extracellular AK activity)
# [15] = cutoff for positive-scoring molecules 3-fold increase
# [16] = planktonic E. faecium, positive cutoff 3-fold increase, read-out: AK-based Prestwick library screening result, E. faecium (fold increase in extracellular AK activity)
# [17] = planktonic S. aureus, positive cutoff 3-fold increase, read-out: AK-based Prestwick library screening result, S. aureus (fold increase in extracellular AK activity)
# [18] = planktonic K. pneumoniae, positive cutoff 3-fold increase, read-out: AK-based Prestwick library screening result, K. pneumoniae (fold increase in extracellular AK activity)
# [19] = planktonic A. baumannii, positive cutoff 3-fold increase, read-out: AK-based Prestwick library screening result, A. baumannii (fold increase in extracellular AK activity)
# [20] = planktonic P. aeruginosa, positive cutoff 3-fold increase, read-out: AK-based Prestwick library screening result, P. aeruginosa (fold increase in extracellular AK activity)
# [21] = planktonic E. cloacae, positive cutoff 3-fold increase, read-out: AK-based Prestwick library screening result, E. cloacae (fold increase in extracellular AK activity)
# [22] = planktonic E. faecium, cutoff for positive-scoring molecules 3-fold increase, read-out: AK-based Prestwick Library Screening Results, E. faecium (increase in extracellular AK activity)
# [23] = planktonic S. aureus, cutoff for positive-scoring molecules 3-fold increase, read-out: AK-based Prestwick Library Screening Results, S. aureus (increase in extracellular AK activity)
# [24] = planktonic K. pneumoniae, cutoff for positive-scoring molecules 3-fold increase, read-out: AK-based Prestwick Library Screening Results, K. pneumoniae (increase in extracellular AK activity)
# [25] = planktonic A. baumannii, cutoff for positive-scoring molecules 3-fold increase, read-out: AK-based Prestwick Library Screening Results, A. baumannii (increase in extracellular AK activity)
# [26] = planktonic P. aeruginosa, cutoff for positive-scoring molecules 3-fold increase, read-out: AK-based Prestwick Library Screening Results, P. aeruginosa (increase in extracellular AK activity)
# [27] = planktonic E. cloacae, cutoff for positive-scoring molecules 3-fold increase, read-out: AK-based Prestwick Library Screening Results, E. cloacae (increase in extracellular AK activity)
# [28] = planktonic E. coli, cutoff for positive-scoring molecules 3-fold increase, read-out: AK-based Prestwick Library Screening Results, E. coli (increase in extracellular AK activity)
# [29] = planktonic E. coli, […], read-out: AK-based Prestwick library screening result, E. coli (fold increase in extracellular AK activity)
# [30] = 384-well format, cutoff for positive-scoring molecules 3-fold increase
structure (smiles),measurement,setting,value
Cc1cc(C(C)(C)C)c(O)c(C)c1CC1=NCCN1 [Oxymetazoline hydrochloride],fold induction at 50 µM,[1]; [8],1
same,fold induction at 50 µM,[2]; [9],1.1
same,fold induction at 50 µM,[3]; [10],1.1
same,fold induction at 50 µM,[4]; [11],1.4
same,fold induction at 50 µM,[5]; [12],1.2
same,fold induction at 50 µM,[6]; [13],1.3
same,fold induction at 50 µM,[7]; [14],1.1
CCCCC1C(=O)N(c2ccccc2)N(c2ccc(O)cc2)C1=O (centres unmarked) [Oxyphenbutazone],"AK-based Prestwick Library Screening Results, E. faecium (fold increase in extracellular AK activity)",[1]; [15],0.9
same,"AK-based Prestwick Library Screening Results, S. aureus (fold increase in extracellular AK activity)",[2]; [15],0.4
same,"AK-based Prestwick Library Screening Results, K. pneumoniae (fold increase in extracellular AK activity)",[3]; [15],0.5
same,"AK-based Prestwick Library Screening Results, A. baumannii (fold increase in extracellular AK activity)",[4]; [15],0.5
same,"AK-based Prestwick Library Screening Results, P. aeruginosa (fold increase in extracellular AK activity)",[5]; [15],0.5
same,"AK-based Prestwick Library Screening Results, E. cloacae (fold increase in extracellular AK activity)",[6]; [15],0.5
same,"AK-based Prestwick Library Screening Results, E. coli (fold increase in extracellular AK activity)",[7]; [15],0.5
CN(C)[C@@H]1C(O)=C(C(N)=O)C(=O)[C@@]2(O)C(O)=C3C(=O)c4c(O)cccc4[C@@](C)(O)[C@H]3[C@H](O)[C@@H]12 [Oxytetracycline dihydrate],fold induction at 50 µM,[1]; [8],0.9
same,fold induction at 50 µM,[2]; [9],3.4
same,fold induction at 50 µM,[3]; [10],0.2
same,fold induction at 50 µM,[4]; [11],5.3
same,fold induction at 50 µM,[5]; [12],0.5
same,fold induction at 50 µM,[6]; [13],1.1
same,fold induction at 50 µM,[7]; [14],1
O=C(O)/C=C/c1ccc(Cn2ccnc2)cc1 [Ozagrel hydrochloride],fold induction at 50 µM,[1]; [16],0.9
same,fold induction at 50 µM,[2]; [17],0.5
same,fold induction at 50 µM,[3]; [18],0.5
same,fold induction at 50 µM,[4]; [19],0.7
same,fold induction at 50 µM,[5]; [20],0.6
same,fold induction at 50 µM,[6]; [21],0.9
same,fold induction at 50 µM,"[7]; planktonic E. coli, positive cutoff 3-fold increase, read-out: AK-based Prestwick library screening result, E. coli (fold increase in extracellular AK activity)",0.6
CC(=O)O[C@H]1C(=O)[C@@]2(C)[C@H]([C@H](OC(=O)c3ccccc3)[C@]3(O)C[C@H](OC(=O)[C@H](O)[C@@H](NC(=O)c4ccccc4)c4ccccc4)C(C)=C1C3(C)C)[C@]1(OC(C)=O)CO[C@@H]1C[C@@H]2O [Paclitaxel],fold induction at 50 µM,[1]; [8],1
same,fold induction at 50 µM,[2]; [9],1
same,fold induction at 50 µM,[3]; [10],1
same,fold induction at 50 µM,[4]; [11],1.3
same,fold induction at 50 µM,[5]; [12],1
same,fold induction at 50 µM,[6]; [13],1.6
same,fold induction at 50 µM,"[7]; planktonic E. coli, 384-well, […], read-out: AK-based Prestwick Library Screening Results: E. coli (increase in extracellular AK activity)",1.1
COc1cc2c(cc1OC)-c1cc3ccc(OC)c(OC)c3c[n+]1CC2 [Palmatine chloride],fold induction at 50 µM,[1]; [22],1
same,fold induction at 50 µM,[2]; [23],0.8
same,fold induction at 50 µM,[3]; [24],0.5
same,fold induction at 50 µM,[4]; [25],0.7
same,fold induction at 50 µM,[5]; [26],0.7
same,fold induction at 50 µM,[6]; [27],0.9
same,fold induction at 50 µM,[7]; [28],0.7
CC(=O)O[C@H]1C[C@@H]2CC[C@@H]3[C@H](CC[C@@]4(C)[C@H]3C[C@H]([N+]3(C)CCCCC3)[C@@H]4OC(C)=O)[C@@]2(C)C[C@@H]1[N+]1(C)CCCCC1 [Pancuronium bromide],fold induction at 50 µM,[1]; [16],1
same,fold induction at 50 µM,[2]; [17],1.1
same,fold induction at 50 µM,[3]; [18],1
same,fold induction at 50 µM,[4]; [19],1.1
same,fold induction at 50 µM,[5]; [20],0.9
same,fold induction at 50 µM,[6]; [21],1.6
same,fold induction at 50 µM,[7]; [29],1.1
CC(C)(CO)[C@@H](O)C(=O)NCCCO [Panthenol (D)],"AK-based Prestwick Library Screening Results, E. faecium (increase in extracellular AK activity)",[1]; [30],0.8
same,"AK-based Prestwick Library Screening Results, S. aureus (increase in extracellular AK activity)",[2]; [30],0.6
same,"AK-based Prestwick Library Screening Results, K. pneumoniae (increase in extracellular AK activity)",[3]; [30],0.7
same,"AK-based Prestwick Library Screening Results, A. baumannii (increase in extracellular AK activity)",[4]; [30],0.8
same,"AK-based Prestwick Library Screening Results, P. aeruginosa (increase in extracellular AK activity)",[5]; [30],0.7
same,"AK-based Prestwick Library Screening Results, E. cloacae (increase in extracellular AK activity)",[6]; [30],1.0
same,"AK-based Prestwick Library Screening Results, E. coli (increase in extracellular AK activity)",[7]; [30],0.9
COc1ccc(Cc2nccc3cc(OC)c(OC)cc23)cc1OC [Papaverine hydrochloride],fold induction at 50 µM,[1]; [22],1
same,fold induction at 50 µM,[2]; [23],0.6
same,fold induction at 50 µM,[3]; [24],0.8
same,fold induction at 50 µM,[4]; [25],0.8
same,fold induction at 50 µM,[5]; [26],1
same,fold induction at 50 µM,[6]; [27],0.9
same,fold induction at 50 µM,[7]; [28],0.9
CCCCc1ccc2[nH]c(NC(=O)OC)nc2c1 [Parbendazole],fold induction at 50 µM,"[1]; planktonic E. faecium, […], read-out: AK-based Prestwick library screening result, E. faecium (fold increase in extracellular AK activity)",0.6
same,fold induction at 50 µM,"[2]; planktonic S. aureus, […], read-out: AK-based Prestwick library screening result, S. aureus (fold increase in extracellular AK activity)",0.7
same,fold induction at 50 µM,"[3]; planktonic K. pneumoniae, […], read-out: AK-based Prestwick library screening result, K. pneumoniae (fold increase in extracellular AK activity)",0.7
same,fold induction at 50 µM,"[4]; planktonic A. baumannii, […], read-out: AK-based Prestwick library screening result, A. baumannii (fold increase in extracellular AK activity)",0.8
same,fold induction at 50 µM,"[5]; planktonic P. aeruginosa, […], read-out: AK-based Prestwick library screening result, P. aeruginosa (fold increase in extracellular AK activity)",0.7
same,fold induction at 50 µM,"[6]; planktonic E. cloacae, […], read-out: AK-based Prestwick library screening result, E. cloacae (fold increase in extracellular AK activity)",1.2
same,fold induction at 50 µM,[7]; [29],0.7
C#CCN(C)Cc1ccccc1 [Pargyline hydrochloride],fold induction at 50 µM,"[1]; 384-well format, cutoff for positive-scoring molecules 3-fold increase, read-out: AK-based Prestwick Library Screening Results, E. faecium (increase in extracellular AK activity)",0.9
same,fold induction at 50 µM,"[2]; 384-well format, cutoff for positive-scoring molecules 3-fold increase, read-out: AK-based Prestwick Library Screening Results, S. aureus (increase in extracellular AK activity)",0.8
same,fold induction at 50 µM,"[3]; 384-well format, cutoff for positive-scoring molecules 3-fold increase, read-out: AK-based Prestwick Library Screening Results, K. pneumoniae (increase in extracellular AK activity)",0.8
same,fold induction at 50 µM,"[4]; 384-well format, cutoff for positive-scoring molecules 3-fold increase, read-out: AK-based Prestwick Library Screening Results, A. baumannii (increase in extracellular AK activity)",0.9
same,fold induction at 50 µM,"[5]; 384-well format, cutoff for positive-scoring molecules 3-fold increase, read-out: AK-based Prestwick Library Screening Results, P. aeruginosa (increase in extracellular AK activity)",1
same,fold induction at 50 µM,"[6]; 384-well format, cutoff for positive-scoring molecules 3-fold increase, read-out: AK-based Prestwick Library Screening Results, E. cloacae (increase in extracellular AK activity)",0.9
same,fold induction at 50 µM,"[7]; 384-well format, cutoff for positive-scoring molecules 3-fold increase, read-out: AK-based Prestwick Library Screening Results, E. coli (increase in extracellular AK activity)",1
